Assay results taken from patent US4015017A, “Certain biphenyl derivatives used to treat disorders caused by increased capillary permeability” (Laboratoires Pharmascience, priority 1974, dated 1977).
Like-named read-outs stand apart in the source and are kept apart here.

Columns and labels:
[1] = molecular target: T1, catechol-O-methyltransferase (Rattus norvegicus, UniProt P22734); assay: Protection of the catecholamines: incubation of catechol-O-methyltransferase with adrenalin and orthodiphenol (method of Axelrod); format: biochemical; conditions: stoichiometric amounts of adrenalin and orthodiphenol, after 30 minutes
T1 sequence (P22734 1-221 isoform P22734-2): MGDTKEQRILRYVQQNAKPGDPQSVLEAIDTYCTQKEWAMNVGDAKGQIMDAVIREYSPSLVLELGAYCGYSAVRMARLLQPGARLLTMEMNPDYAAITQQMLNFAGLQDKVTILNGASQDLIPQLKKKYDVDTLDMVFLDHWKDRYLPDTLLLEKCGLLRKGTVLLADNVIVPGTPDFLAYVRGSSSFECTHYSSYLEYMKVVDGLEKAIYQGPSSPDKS
Description: Whether administered orally or parenterally they undergo in the organism a monomethylation on one of the two hydroxyl groups, as do all orthodiphenols, (J. Axelrod and M. J. Laroche, 1959, Science, 130, p 800). This monomethylation is due to the action of the catechol-O-methyltransferases (C.O.M.T.), S-adenosyl-L-methionine providing the methyl radicals (J. Axelrod and R. Tomchick, 1958, J. Biol. Chem. 233 p.702). This methylation occurs in the physiological catecholamines, for example, adrenalin, as well as in the synthetic orthodiphenols.
As methylation is a first stage in the destructive pathway, this competition serves to protect the natural catecholamines from early destruction, (J. M. Gazave, P. Canu, M. Baques, and F. Martin, 1971, Biochem and Experim. Biol., X p.89).
Using the techniques of Axelrod et al (op.cit.) it is possible to quantify this effect for various compounds, as the intensity of the effect varies, being dependent on the chemical composition and physical properties, especially the solubility of the compound.
By incubating a catechol-O-methyltransferase with stoichiometric amounts of adrenalin and an orthodiphenol according to the method of Axelrod, determining the quantity of adrenalin protected ie. non-methylated after 30 minutes the extent of the protection given by the product studied can be evaluated.

mice = assay: Anti-inflammation effect on vessels using croton oil on mice (technique of Bounameaux and Lecomto); format: in vivo
Description: Some of the compounds of the formula I have other interesting properties. Thus the anti-inflammation effect on vessels evaluated according to the technique of Y. Bounameaux and J. Lecomto, 1955, C.R. Soc.

in vivo [2] = conditions: rat, ip, acute toxicity, intraperitoneal administration, rats, read-out: DL50 A. IP
in vivo [3] = conditions: rat, acute toxicity, oral administration, rats, read-out: DL 50 A.O
guinea pig = assay: Capillary resistance on the guinea pig (technique of Parrot and Canu); format: in vivo
Description: Experiments on capillary resistance on the guinea pig using the technique of J-L. Parrot and P. Canu, 1964, Arch. […] (By comparison trioxyethylrutine gives an increase of 13%).

rats = assay: Research into the methemoglobinising properties (spectrophotometric technique of Evelyn and Malby); format: in vivo; conditions: rats treated for 75 days at 0.20 g per kg body weight per day
Description: Certain phenols, in particular pyrocatechol (1,2-dihydroxybenzene) and pyrogallol (1,2,3-trihydroxybenzene), when administered either orally or parenterally to an organism bring about a transformation of the oxyhaemoglobin of the blood to methemoglobin. In oxyhaemoglobin, the iron is in the ferrous state (Fe^+^+) and can transport oxygen; whereas in methemoglobin, the iron is in the ferric state (Fe ^+^+^+) and is unsuitable for transporting oxygen.
It therefore appeared necessary to try to discover if the polyhydroxy compounds used in the preparations of the present invention, in particular 2,3,3',4,4',5'-hexahydroxy benzophenone, would also act as methemoglobinising agents.
This study was carried out using pyrogallol as the comparative substance and the spectrophotometric technique of Evelyn and Malby, (in R. Lecoq, 1972, Analyses Medicales, 2, p.1699): […]

Row | SMILES | protection of adrenalin (non-methylated) [1] [%] | increase in the capillary resistance (guinea pig) [%] | also measured
1 | O=C(Cc1ccc(O)c(O)c1)c1ccc(O)c(O)c1 [β-(3,4-dihydroxyphenyl)-3,4-dihydroxyacetophenone] | ≥ 90 |  | 
2 | O=C(c1ccc(O)c(O)c1)c1ccc(O)c(O)c1O [2,3,3',4,4'-pentahydroxybenzophenone] | 100 |  | 
3 | O=C(c1ccc(O)c(O)c1)c1cc(O)c(O)c(O)c1 [3,3',4,4' ,5'-pentahydroxybenzophenone, 3,3',4,4',5'-pentahydroxybenzophenone] | 100 |  | anti-inflammation effect on vessels (mice): anti-inflammatory properties
4 | Oc1ccc(Cc2ccc(O)c(O)c2)cc1O [di-(3,4-dihydroxyphenyl) methane, di-(3,4-dihydroxyphenyl)-methane] | ≥ 90 |  | 
5 | O=C(Cc1ccc(O)c(O)c1)c1ccc(O)c(O)c1O [β-(3,4-dihydroxyphenyl)-2,3,4-trihydroxyacetophenone] |  | 34 | LD50 (in vivo [2]): 730 mg/kg; LD50 (in vivo [3]): 2000 mg/kg
6 | O=C(c1ccc(O)c(O)c1)c1ccc(O)c(O)c1 [3,3',4,4'-tetrahydroxybenzophenone] | 100 |  | 
7 | O=C(c1cc(O)c(O)c(O)c1)c1ccc(O)c(O)c1O [2,3,3',4,4',5'-Hexahydroxybenzophenone, 2,3,3',4,4',5'-hexahydroxybenzophenone] | 100 | 82 | LD50 (in vivo [2]): 355 mg/kg; methemoglobin in the blood (rats): no methemoglobin could be detected; LD50 (in vivo [3]): 1420 mg/kg
8 | O=C(C(=O)c1ccc(O)c(O)c1)c1ccc(O)c(O)c1 [3,3',4,4'-tetrahydroxybenzile, 3,3',4,4'-tetrahydroxybenzil] | 100 |  | 
9 | O=C(c1ccc(O)c(O)c1)c1cccc(O)c1O [2,3,3',4'-Tetrahydroxybenzophenone, 2,3,3',4'-tetrahydroxybenzophenone] | ≥ 90 | 56 | anti-inflammation effect on vessels (mice): anti-inflammatory properties
10 | C[C@@H]1O[C@@H](OC[C@H]2O[C@@H](Oc3c(-c4ccc(OCCO)c(OCCO)c4)oc4cc(OCCO)cc(O)c4c3=O)[C@H](O)[C@@H](O)[C@@H]2O)[C@H](O)[C@H](O)[C@H]1O [trioxyethylrutine, reference compound] |  | 13 | 
